According to patent publication US8057829B2, “Methods for repelling insects using sesquiterpene hydrocarbons and their derivatives” (Sterling International Inc., priority 2008, dated 2011):

Experiments:
[1] = tested on: housefly (Musca domestica) antenna; experiment: GC-EAD antennal response, housefly; conditions: synthetic mixture, about 100 ng of each compound
houseflies = experiment: Laboratory sticky trap bioassay of spatial repellency with egg powder attractant; format: in vivo, housefly (Musca domestica); conditions: for female house flies per trap / male house flies per trap: egg powder plus repellent; for repellency against houseflies, in words: laboratory trap bioassay with egg powder attractant
Experimental: Laboratory bioassay tests were carried out to investigate the efficacy of some of the EAD-active compounds described above to act as spatial repellents against several insects. The procedure for the bioassay tests is described in Example 2 below. Briefly stated, the bioassay included using egg powder (EP) as an attractant for flies, while the compound whose insect repellency was being tested was placed in proximity to the egg powder. In FIGS. 11-13, the bioassay was carried out on houseflies using devices known by the designation Trécé Pherocon® VI sticky traps.
The following lab bioassay tests were employed to illustrate the efficacy of the compounds to effectively act as spatial repellents for flies. Three sets of tests were conducted in a fly testing room (23° C., 70% RH, and 12/12 (L/D) light regime illuminated by fluorescent lights). Two sets of tests were carried out using Trécé Pherocon® VI traps with sticky inserts, which were set up on poles evenly spaced on a rotating table. The traps were ca. 1 m above a table surface, and ca. 1 m apart from each other. Two grams of egg powder in a white cap (4 cm in diameter, 0.5 cm in height) used as an attractant was put on the center of the sticky insert in the sticky trap. The potential repellent candidate chemicals were loaded into polyethylene bags, and were hung under the inner roof of the traps, 1-1.5 cm above the egg powder attractant. A control had the empty white cap and blank polyethylene bag, while the positive control had only the egg powder and an empty polyethylene bag. The test table was rotated 1.5 r.p.h. […] About 200-300 houseflies (2-3 days old) were released into the testing room for each test. Tests were normally run from 8:00 am to 5:00 pm, and the numbers of houseflies caught in each trap were counted after each test. The results of these tests are shown in FIGS. 11-13 and described above.

Aedes aegypti = experiment: Y-tube olfactometer behavioral bioassay (spatial repellency); format: in vivo; conditions: for Number of mosquitoes in each arm: Blank / Number of mosquitoes in each arm: Bottom / Number of mosquitoes in each arm: Repellent: Aedes aegypti females, release rate per chemical (1-60 mg/day), 10 min; for Number of mosquitoes in each arm: Repellent: two replicates pooled; for SAI (Spatial Activity Index): Aedes aegypti, (Nc − Nt)/(Nc + Nt), −1 to 1, zero indicating no response
How it was run: (§1)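 Female insects (25-40 per run; mosquitoes 6-10 days old, sand flies 3-10 days) released into a CO2-baited Y-tube holding a treatment dispenser in one arm and a blank in the other; arm counts taken after 10 min at 23-25° C. Arms swapped in a repeat run; pooled data tested by χ2 (df=1).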

Anopheles stephensi = experiment: as above; format: in vivo; conditions: for Number of mosquitoes in each arm: Repellent / Number of mosquitoes in each arm: Blank / Number of mosquitoes in each arm: Bottom: Anopheles stephensi females; for SAI (Spatial Activity Index): Anopheles stephensi
How it was run: as §1

Phlebotomus papatasi = experiment: as above; format: in vivo; conditions: for SAI (Spatial Activity Index): Phlebotomus papatasi; for Number of mosquitoes in each arm: Repellent: Phlebotomus papatasi (sand fly) females, release rate per chemical (1-35 mg/day); for Number of mosquitoes in each arm: Repellent / Number of mosquitoes in each arm: Blank / Number of mosquitoes in each arm: Bottom: 10 min; for Number of mosquitoes in each arm: Blank / Number of mosquitoes in each arm: Bottom: Phlebotomus papatasi females, release rate per chemical
How it was run: as §1

[2] = tested on: Aedes Aegypti, Anopheles stephensi and the sand fly P. papatasi; experiment: Y-tube bioassay, statements pooled for the three species; format: in vivo, Aedes aegypti; Anopheles stephensi; Phlebotomus papatasi; conditions: clove oil ca. 10 mg/day, patchouli oil 15 mg/d, sesquiterpenes 1 to 35 mg/d release
Experimental: Aegypti and An. stephensi, and one species of sand fly, P. papatasi. Both the mosquitoes and the sand flies used in the study were from colonies maintained at the Walter Reed Army Institute of Research, Department of Entomology, Silver Spring, Md. This Y-tube bioassay system, equipped with CO2-enriched air (ca. 1 l/min) as an attractant, was made from three clear acrylic tubes (4″ diameter; 12″ length) with symmetrical 120° angles among the three tube arms; and a screen butterfly valve on the top part of the bottom releasing tube. These spatial repellency tests were carried out during 8:00 am-12:00 pm (photophase) time period for Ae. aegypti and 1:00-5:00 pm (shifted scotophase) time period for the species of night-flying mosquitoes and sand fly in a temperature and humidity controlled testing room (23-25° C. and 20-40% RH). Female mosquitoes or sand flies were stored at ˜25-26° C., 50-89% RH, 12:12 hr. (L/D), fed with 10% sucrose solution before testing. The candidate chemical (individual or mixture) dispenser and a blank control were placed in the upper left or right arm of the Y-tube before releasing 25-40, 6 to 10 day-old female mosquitoes (or 3 to 10 day-old sand flies) into the bottom tube via a small hole. After a 30-60 sec acclimation period, the butterfly screen valve (door) on the top of the bottom tube was opened. After 10 min., the valve was closed and the numbers of mosquitoes or sand flies in each arm (including the bottom tube) were counted. In order to minimize the position effect, the same experiment was repeated once with the treatment and blank control arms shifted using a new (clean) Y-tube olfactometer and a new batch of mosquitoes/sand flies. Data from these two replicates were pooled for χ2 goodness of fit test (df=1) between the treatment and blank control.

[3] = female housefly antenna, FIG. 3
[4] = FIG. 13, egg powder alone 76 females
[5] = FIG. 13, egg powder alone 95 males
[6] = release rate per chemical (1-60 mg/day; β-Caryophyllene 10 mg/day), 10 min
[7] = release rate per chemical (β-Caryophyllene 10 mg/day), 10 min
[8] = FIG. 12, egg powder alone 35 females
[9] = FIG. 12, egg powder alone 68 males

Structure (SMILES)	GC-EAD antennal activity [1, 3]	female house flies per trap (houseflies; [4]) [house flies per trap]	male house flies per trap (houseflies; [5])	repellency against houseflies, in words (houseflies)	Number of mosquitoes in each arm: Blank (Aedes aegypti)	Number of mosquitoes in each arm: Bottom (Aedes aegypti)	Number of mosquitoes in each arm: Repellent (Aedes aegypti)	SAI (Spatial Activity Index) (Aedes aegypti)	Number of mosquitoes in each arm: Repellent (Anopheles stephensi; [6])	Number of mosquitoes in each arm: Blank (Anopheles stephensi; [7])	Number of mosquitoes in each arm: Bottom (Anopheles stephensi; [7])	SAI (Spatial Activity Index) (Anopheles stephensi; β-Caryophyllene 10 mg/day)	SAI (Spatial Activity Index) (Phlebotomus papatasi)	Number of mosquitoes in each arm: Repellent (Phlebotomus papatasi)	Number of mosquitoes in each arm: Blank (Phlebotomus papatasi)	Number of mosquitoes in each arm: Bottom (Phlebotomus papatasi)	spatial repellency, in words [2]	GC-EAD antennal activity ([1]; male housefly antenna, FIG. 4)	female house flies per trap (houseflies; [8]) [house flies per trap]	male house flies per trap (houseflies; [9])	further results
C=C1C2CCC3[C@H]2C(C)(C)CCC[C@]13C (single isomer, unassigned; (+)) [(+)-Longifolene]	active	4	one	strongest repellent against houseflies	20	37	5	0.60	9	23	29	0.44	0.55	5	17	41	showed spatial repellency effects	–	–	–	–
C=C1CC/C=C(/C)CC[C@@H]2[C@@H]1CC2(C)C [Isocaryophyllene, isocaryophyllene]	–	–	–	–	35	31	8	0.63	8	21	26	0.45	0.23	40	64	34	showed spatial repellency effects	EAD-active	15	14 house flies per trap	–
C=C1CC/C=C(\C)CC[C@@H]2[C@@H]1CC2(C)C [β-Caryophyllene, β-caryophyllene]	active	10	two	effective housefly repellents	20	40	6	0.54	19	23	26	0.10	0.57	9	33	25	showed spatial repellency effects	EAD-active	12	six	number of house flies per trap (houseflies; egg powder attractant plus repellent, FIG. 11, egg powder alone 44): 3.5 house flies per trap; Number of mosquitoes in each arm: Blank (Anopheles stephensi; release rate 35 mg/day, PE-Bag): 22; Number of mosquitoes in each arm: Bottom (Anopheles stephensi; release rate 35 mg/day, PE-Bag): 43; Number of mosquitoes in each arm: Repellent (Anopheles stephensi; release rate 35 mg/day, PE-Bag): 5; SAI (Spatial Activity Index) (Anopheles stephensi; release rate 35 mg/day): 0.63
